US11395867B2, “Degradable removable implant for the sustained release of an active compound” (Janssen Sciences Ireland Unlimited Company, priority 2009, dated 2022)
Where “and” joins values, the source holds several entries; their conditions need not be identical. Equal values may be shown once.

Columns and labels:
[1] = In vivo testing of electrostatically spun tube containing two sets of microparticles, plasma concentrations; design: species or system Sprague-Dawley rats; conditions: rat, subcutaneous electrospun tube implant, TMC278 139 mg/kg, compound 1 64 mg/kg, individual animals 1-4
Protocol: Tubes were electrostatically spun from a 100 mg/ml polydioxanone (IVHFIP=1.99 dl/g) hexafluoroisopropanol solution. A 4 mm mandrel was used to provide a consistent inner diameter of 4 mm. The rotational speed of the mandrel was 400 rpm, the charging voltage range was 20/−10 kV, and the pump flow rate was 10 ml/hour. The resulting wall thickness was 500 microns. Fiber diameters were 1-2 microns and the average pore size formed from the network of fibers was 20 microns as determined by Scanning Electron Microscopy.
The microparticles were prepared by the spinning disc method using a polymer/acetone solution with a concentration ranging from 3-4% (w/w). Two sets of microparticles were prepared. The target composition of one set was 70% (w/w) TMC278 and 30% (w/w) PLGA 50/50 (Lakeshore Biomaterials IVHFIP=0.79 dl/g). The target composition of the other set of microparticles was 70% (w/w) of compound 1 (=compound 14 of WO01/25240) and 30% (w/w) PLGA 50/50 (Lakeshore Biomaterials IVHFIP=0.18 dl/g). This compound 1 has the following structure and will be referred to hereinafter as compound 1:
Approximately 133 mg of the microparticle mixture was introduced into the electrostatically prepared tubes using a spatula.
(§1) The prepared tubes were implanted into the subcutaneous space on the back of four male Sprague-Dawley rats weighing between 250-350 grams. The dose of TMC278 was 139 mg/kg and the dose of compound 1 was 64 mg/kg. The tail vein was sampled at pre-determined time points. Blood samples were immediately centrifuged to extract the plasma, plasma was analyzed for compound 1 and TMC278 by LC/MS/MS. The lower limit of quantitation was 0.4 ng/ml and 2 ng/ml for TMC278 and compound 1, respectively.

[2] = In vivo testing of laser drilled melt extruded tube containing two sets of microparticles, plasma concentrations; conditions: rat, subcutaneous laser drilled extruded tube implant, TMC278 139 mg/kg, compound 1 64 mg/kg, individual animals 1-4
Protocol: Tubes with inner diameter of 4.5 mm were extruded from polydioxanone (IVHFIP=1.99 dl/g) using a ¾ inch single screw extruder fitted with a tube die. The dimensions of the tube were monitored using an in-line laser diameter measuring system and maintained using a puller. Following the extrusion the tubes were laser drilled. In preparation for the laser drilling a mask design was prepared that located the holes 260 microns apart from one another. Scanning electron microscopy was used to size the inner and outer diameter of the holes. […] The microparticles were prepared as described in Example 9. Approximately 133 mg of the microparticle mixture was introduced into the tubes.
as §1, with “plasma, and” for “plasma,”, “quantitation for TMC278 and compound 1” for “quantitation”, “2.0 ng/ml,” for “2 ng/ml for TMC278 and compound 1,”

[3] = In vivo testing of laser drilled melt extruded tube containing two sets of microparticles formulated with F108, plasma concentrations; design: species or system Sprague-Dawley rats; conditions: rat, subcutaneous laser drilled extruded tube implant, TMC278 109 mg/kg, compound 1 78 mg/kg, individual animals 1-4
Protocol: The laser drilled melt extruded tube was prepared as described above in example 10. The microparticles were prepared by the spinning disc method using a 3% (w/w) polymer/acetone solution. Two sets of microparticles were prepared. The target composition of one set was 70% (w/w) TMC278, 20% (w/w) PLGA 50/50 (Lakeshore Biomaterials IVHFIP=0.79 dl/g), and 10% (w/w) F108 (BASF). The target composition of the other set of microparticles was 70% (w/w) compound 1, 20% (w/w) PLGA 50/50 (Lakeshore Biomaterials IVHFIP=0.18 dl/g), and 10% (w/w) F108. The F108 was added to the polymer solution.
The size range of the microparticles was determined by randomly selecting a sample of microparticles and placing them on the stage of an optical microscope and using a ruler to measure the various sizes of the microparticles in the randomly selected sample. The size range of the TMC278 and compound 1 microparticles was 10-100 microns and 20-100 microns, respectively. Microparticles were mixed as described in example 9. Approximately 133 mg of the microparticle mixture was introduced into tubes using a spatula to transfer the contents.
as §1, with “TMC278” for “TMC278 was 139 mg/kg”, “and” for “and the dose of”, “109 mg/kg and 78 mg/kg, respectively.” for “64 mg/kg.”, “quantitation for TMC278 and compound 1” for “quantitation”, “ng/ml,” for “ng/ml for TMC278 and compound 1,”

Compound: CC(C)CN(C[C@@H](O)[C@H](Cc1ccccc1)NC(=O)O[C@H]1CO[C@H]2OCC[C@H]21)S(=O)(=O)c1ccc2c(c1)OCO2 [compound 1]
- plasma concentration ([1]; 3 hour): 2.37 ng/mL and 4.08 ng/mL and 4.46 ng/mL
- plasma concentration ([1]; 1 day): 12.6 ng/mL and 9.95 ng/mL and 10.5 ng/mL
- plasma concentration ([1]; 3 day): 15.1 ng/mL and 14.2 ng/mL and 15.9 ng/mL
- plasma concentration ([1]; 7 day): 13.6 ng/mL and 13.2 ng/mL and 13.0 ng/mL
- plasma concentration ([1]; 14 day): 7.17 ng/mL and 12.7 ng/mL and 16.6 ng/mL and 9.89 ng/mL
- plasma concentration ([1]; 28 day): 6.07 ng/mL and 8.86 ng/mL and 12.4 ng/mL and 10.5 ng/mL
- plasma concentration ([1]; 35 day): 5.75 ng/mL and 12.0 ng/mL and 20.0 ng/mL and 11.6 ng/mL
- concentration at 3 h ([1]; male, Sprague-Dawley, plasma, subcutaneous, 3 hour): 3.93 ng/mL
- concentration at 1 day ([1]; male, Sprague-Dawley, plasma, subcutaneous, 1 day): 6.39 ng/mL
- concentration at 3 day ([1]; male, Sprague-Dawley, plasma, subcutaneous, 3 day): 10 ng/mL
- concentration at 7 day ([1]; male, Sprague-Dawley, plasma, subcutaneous, 7 day): 9.95 ng/mL
- plasma concentration ([2]; 3 hour): 2.88 ng/mL and 16.4 ng/mL and 27.0 ng/mL and 16.5 ng/mL
- plasma concentration ([2]; 1 day): <2 ng/mL and 4.20 ng/mL and 9.25 ng/mL and 3.71 ng/mL
- plasma concentration ([2]; 3 day): <2 ng/ml (2×) and 3.35 ng/ml and 6.06 ng/ml
- plasma concentration ([2]; 7 day): 3.44 ng/mL and 3.13 ng/mL and <2 ng/mL
- plasma concentration ([2]; 14 day): 2.70 ng/mL and 2.26 ng/mL and 3.66 ng/mL
- plasma concentration ([2]; 28 day): <2 ng/mL and 4.32 ng/mL and 13.0 ng/mL and 4.30 ng/mL
- plasma concentration ([2]; 35 day): <2 ng/mL and 3.56 ng/mL and 13.0 ng/mL and 2.57 ng/mL
- concentration at 7 day ([2]; male, in vivo, 7 day): < 2 ng/mL
- concentration at 14 day ([2]; male, in vivo, 14 day): < 2 ng/mL
- plasma concentration ([3]; 3 hour): 59.1 ng/mL and 26.9 ng/mL and 39.2 ng/mL and 17.3 ng/mL
- plasma concentration ([3]; 1 day): 6.13 ng/mL and 2.54 ng/mL and 4.36 ng/mL and 2.98 ng/mL
- plasma concentration ([3]; 3 day): <2 ng/mL
- plasma concentration ([3]; 7 day): 2.89 ng/ml and <2 ng/ml (2×)
- plasma concentration ([3]; 14 day): 8.25 ng/ml and <2 ng/ml (2×) and 6.27 ng/ml
- plasma concentration ([3]; 28 day): 22.1 ng/mL and 6.03 ng/mL and 12.3 ng/mL and 16.3 ng/mL
- plasma concentration ([3]; 35 day): 13.1 ng/mL and 7.25 ng/mL and 10.7 ng/mL and 15.4 ng/mL
- concentration at 3 day ([3]; male, Sprague-Dawley, plasma, 3 day): 3.36 ng/mL
- concentration at 7 day ([3]; male, Sprague-Dawley, plasma, 7 day): < 2 ng/mL
